Experimental data: the NIST ThermoML archive (doi:10.1021/je100208e)
± gives the expanded uncertainty stated by the source.

Experiments:
[1] = for vapor or sublimation pressure: Knudsen effusion; for Normal melting temperature: DTA
[2] = Molar enthalpy of transition or fusion; settings: Crystal; DSC

## c1ccc2cc3ccccc3cc2c1 [anthracene]
[1]; 300 K, Crystal
  vapor or sublimation pressure: 1.192e-06 ± 7e-08 kPa
[1]; 305 K, Crystal
  vapor or sublimation pressure: 2.257e-06 ± 1.2e-07 kPa
[1]; 310 K, Crystal
  vapor or sublimation pressure: 4.186e-06 ± 2.2e-07 kPa
[1]; 315 K, Crystal
  vapor or sublimation pressure: 7.613e-06 ± 3.9e-07 kPa
[1]; 320 K, Crystal
  vapor or sublimation pressure: 1.359e-05 ± 6.9e-07 kPa
[1]; 325 K, Crystal
  vapor or sublimation pressure: 2.383e-05 ± 1.2e-06 kPa
[1]; 330 K, Crystal
  vapor or sublimation pressure: 4.109e-05 ± 2.1e-06 kPa
[1]; 335 K, Crystal
  vapor or sublimation pressure: 6.969e-05 ± 3.5e-06 kPa
[1]; 340 K, Crystal
  vapor or sublimation pressure: 0.0001164 ± 5.8e-06 kPa
[1]; 345 K, Crystal
  vapor or sublimation pressure: 0.0001915 ± 9.6e-06 kPa
[1]; 350 K, Crystal
  vapor or sublimation pressure: 0.0003107 ± 1.6e-05 kPa
[1]; 355 K, Crystal
  vapor or sublimation pressure: 0.0004972 ± 2.5e-05 kPa
[1]; 360 K, Crystal
  vapor or sublimation pressure: 0.0007852 ± 3.9e-05 kPa
[1]; 365 K, Crystal
  vapor or sublimation pressure: 0.001225 ± 6.1e-05 kPa
[1]; 370 K, Crystal
  vapor or sublimation pressure: 0.001888 ± 9.4e-05 kPa
[1]; 373 K, Crystal
  vapor or sublimation pressure: 0.002433 ± 0.00012 kPa
[1]; Crystal
  Normal melting temperature: 217 ± 1 °C
[2]
  Molar enthalpy of transition or fusion: 6.65 ± 0.454 kcal/mol

## c1cc2ccc3cccc4ccc(c1)c2c34 [pyrene]
[1]; 315 K, Crystal 1
  vapor or sublimation pressure: 4.79e-06 ± 2.5e-07 kPa
[1]; 320 K, Crystal 1
  vapor or sublimation pressure: 8.55e-06 ± 4.4e-07 kPa
[1]; 325 K, Crystal 1
  vapor or sublimation pressure: 1.499e-05 ± 7.6e-07 kPa
[1]; 330 K, Crystal 1
  vapor or sublimation pressure: 2.584e-05 ± 1.3e-06 kPa
[1]; 335 K, Crystal 1
  vapor or sublimation pressure: 4.382e-05 ± 2.2e-06 kPa
[1]; 340 K, Crystal 1
  vapor or sublimation pressure: 7.317e-05 ± 3.7e-06 kPa
[1]; 345 K, Crystal 1
  vapor or sublimation pressure: 0.0001204 ± 6e-06 kPa
[1]; 350 K, Crystal 1
  vapor or sublimation pressure: 0.0001952 ± 9.8e-06 kPa
[1]; 355 K, Crystal 1
  vapor or sublimation pressure: 0.0003124 ± 1.6e-05 kPa
[1]; 360 K, Crystal 1
  vapor or sublimation pressure: 0.0004933 ± 2.5e-05 kPa
[1]; 365 K, Crystal 1
  vapor or sublimation pressure: 0.0007693 ± 3.9e-05 kPa
[1]; 370 K, Crystal 1
  vapor or sublimation pressure: 0.001185 ± 5.9e-05 kPa
[1]; 375 K, Crystal 1
  vapor or sublimation pressure: 0.001806 ± 9.1e-05 kPa
[1]; 378 K, Crystal 1
  vapor or sublimation pressure: 0.002312 ± 0.00012 kPa
[1]; Crystal
  Normal melting temperature: 151 ± 1 °C
[2]
  Molar enthalpy of transition or fusion: 3.87 ± 0.263 kcal/mol
